Where two headings read alike, the source gives them in different places.
Assays:
A3 adenosine receptor [1] = target: T1, A3 adenosine receptor (Rattus norvegicus, UniProt P28647); experiment: Direct radioligand binding / Scatchard analysis, stably transfected CHO cell membranes; settings: for specific, high affinity binding to the A3 receptor: radiolabeled ligands
T1 sequence (P28647 1-320): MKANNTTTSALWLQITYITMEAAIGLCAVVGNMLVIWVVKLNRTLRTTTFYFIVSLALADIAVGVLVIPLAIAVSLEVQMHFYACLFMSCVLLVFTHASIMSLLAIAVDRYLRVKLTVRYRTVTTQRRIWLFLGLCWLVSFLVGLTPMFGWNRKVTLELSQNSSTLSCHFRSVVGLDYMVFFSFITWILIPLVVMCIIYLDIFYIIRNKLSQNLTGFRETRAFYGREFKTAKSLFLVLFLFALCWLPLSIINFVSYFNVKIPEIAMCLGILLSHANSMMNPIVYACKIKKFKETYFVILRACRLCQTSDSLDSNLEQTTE
Source text: FIG. 3 illustrates a Scatchard plot of radioligand binding assays for the A3 adenosine receptor performed with the adenosine radioligand [^125 I]APEA and membrane preparations from stably transfected CHO cells.
The entire coding region of the A3 cDNA insert from R226 was excised from pGem226 and subcloned into either the HindIII/XbaI sites of an RC-RSV expression vector (Invitrogene, San Diego, Calif.) or the HindIII/SmaI sites of pBC12BI (Cullen, 1987, Meth. Enzym. 152: 684-704). The resulting plasmids were called Rc-RSV226 and pBC226 respectively. For transient expression in COS-7 cells, pBC226 plasmid DNA was prepared in large-scale through one cycle of CsCl gradient ultracentrifugation and 45 μg pBC226 DNA were transfected into each 150mm dish of COS-7 cells according to the method of Chen and Okayama (1987, Molec. Cell Biol. 7: 2745-2752). For stable expression in CHO cells, 1 μg Rc-RSV226 plasmid DNA isolated from a small-scale preparation was purified using the Prep-A-Gene kit (Bio-Rad) and transfected into CHO cells by the CaPO4 method (Graham and van der Eb, 1973, Virol. 52: 456-463). After transfection, cells were cultured in DMEM (COS-7 cells) or F-12 (CHO cells) media supplemented with 10% fetal calf serum in a 3% CO2 atmosphere at 37° C. For stable transfection, selection was performed with neomycin (G418; SOURCE) at a concentration of 700 μg/ml; selection was started 72 hr after transfection and continued for 3 weeks. Cell colonies were screened for expression of the A3 adenosine receptor from the R226 expression vectors described herein by Northern blot hybridization of total cellular RNA with random-primed PCR226 probe (Maniatis et al., ibid.).
(§1) Cell membranes were prepared as follows. COS-7 cells (transient expressors) were harvested 48 hrs after transfection, whereas CHO cells (stable expressors) were grown to confluence in 150 mm plates. Cells were washed twice with ice-cold HOB buffer [15 mM Tris-HCl (pH 7.4), 5 mM MgCl2, 1 mM EDTA] and scraped off plates with a rubber policeman. Cells were then collected by centrifugation at 1,200 rpm (xx g), resuspended in HOB buffer, transferred to a Dounce homogenizer on ice, and homogenized for 20 sec with a CorTarge homogenizer (Eberbach Inc., Ann Arbor, Mich.) at the #3 speed setting. The homogenate was then centrifuged at 2,000 rpm (xx g) for 10 min at 4° C. The supernatant was saved and the pellet resuspended in HOB buffer and subjected to a second round of homogenation. The second homogenate was centrifuged at 2000 rpm (xx g) for 10 min and the pellet was discarded. Supernatants were pooled and centrifuged at 34,000 rpm (xx g) for 45 min. These crude membrane pellets were resuspended in TEM buffer [50 mM Tris-HCl (pH 7.4), 5 mM MgCl2, 1 mM EDTA]. Adenosine deaminase (Sigma, St Louis, Mo.) was added to the membrane suspensions to a concentration of 2 Units/ml and incubated at 37° C. for 30 min. The membrane suspension was subsequently recentrifuged at 34,000 rpm (xx g) for 45 min. The resulting pellet was resuspended in TEM buffer at a protein concentration of about 1 mg/ml and stored in small aliquots at -70° C. The protein concentration was measured according to the method of Lowry et al. (1954, J. Biol. Chem. 207: 1-XXX) using bovine serum albumin as a standard.
Radioligand binding assays were carried out in duplicate in 500 μl of a solution containing (at final concentrations) 50 mM Tris-HCl (pH 7.4), 5 mM MgCl2, 1 mM EDTA, 0.025 % ascorbic acid, radioligands, and appropriate drugs. […] ([aH]XAC), [^3 H]-labeled 2-[4-(2-[(4-aminophenyl)methylcarbobylamino]ethylaminocarbonyl)ethyl)phenyl]ethylamino-5'-N-ethylcarboxamidoadenosine ([^3 H]PAPA-APEC), and [^3 H]-labeled [2-(4-(2-carboxyethyl)phenylethyamino)5'-N-ethylcarboxamidoadenosine ([^3 H]CGS21680). Receptor binding was initiated by the addition of membrane preparations in an amount equivalent to 20-100 μg protein, and carried out at 37° C. for 1 hr.

A3 adenosine receptor [2] = target: T1, A3 adenosine receptor; experiment: cell-based; format: cell-based
Protocol: The concentrations of adenosine agonists used are 100 nM and the concentration of forskolin is 1 μM. Values are obtained from triplicate plates and shown as mean ±S.E.
The cell were not or pretreated with 100 ng/ml pertussis toxin for 18 hours. The concentration of forskolin and adenosine agonists used are as in FIG. 5.
It is known that the A 1 adenosine receptor inhibits adenylate cyclase activity and the A2 adenosine receptor stimulates adenylate cyclase respectively (Stiles, ibid.; Williams, ibid.).
(§2) Cells were grown to about 80% confluence in 150 mm dishes, washed twice with Ca^++ and Mg^++ -free PBS buffer and detached from plates with PBS buffer containing 0.02% EDTA. Cells were collected by centrifugation at 800 rpm (xx g) for 10 min at 4° C. and resuspended in an appropriate volume of KRH buffer [140 mM NaCl, 5 mM KCl , 2 mM CaCl2, 1.2 mM MgSO4, 1.2 mM KH2 PO4, 6 mM glucose, 25 mM Hepes-NaOH (pH 7.4)]. The cells were washed once with KRH buffer and resuspended in KRH buffer at a concentration of 10^7 cells/ml. Each of 100 μl aliquots of this cell suspension were added to a glass tube containing 100 μl KRH+200 μM Ro 20-1724 and incubated at 37° C. for 10 min. Prewarmed 200 μl KRH containing 200 μm Ro 20-1724 and test drugs were then added to the cells and mixed. After incubation at 37° C. for 20 min, 400 μl 10.5 mM NaAc (pH 6.2) were added and the glass tubes transferred to a boiling water bath. The incubated cell suspension were boiled for 20 min, and the tubes were then cooled to room temperature and centrifuged at 3000 rpm (xx g) for 15 min.
For experiments using pertussis toxin pretreatment, aseptic pertussis toxin (Sigma Chemical Co., St. Louis, Mo.) was dissolved in sterile water and added to the medium to a final concentration of 100 ng/ml. Toxin treatment was maintained for approximately 18 hours. The dishes were rinsed once with media immediately prior to the addition of adenosine receptor ligands and processed as described above.

A3 adenosine receptor [3] = target: T1, A3 adenosine receptor; experiment: biochemical; format: binding; settings: for ability to compete with [125I]APNEA for A3 receptor binding: 100 μM
Protocol: FIGS. 4A and 4B illustrates competitive binding assays using stably transfected CHO cell membrane preparations.
as §1
Radioligand binding assays were carried out in duplicate in 500 μl of a solution containing (at final concentrations) 50 mM Tris-HCl (pH 7.4), 5 mM MgCl2, 1 mM EDTA, 0.025 % ascorbic acid, radioligands, and appropriate drugs. […] ([aH]XAC), [^3 H]-labeled 2-[4-(2-[(4-aminophenyl)methylcarbobylamino]ethylaminocarbonyl)ethyl)phenyl]ethylamino-5'-N-ethylcarboxamidoadenosine ([^3 H]PAPA-APEC), and [^3 H]-labeled [2-(4-(2-carboxyethyl)phenylethyamino)5'-N-ethylcarboxamidoadenosine ([^3 H]CGS21680). Receptor binding was initiated by the addition of membrane preparations in an amount equivalent to 20-100 μg protein, and carried out at 37° C. for 1 hr. Nonspecific binding was determined in the presence of 10 μM R-N^6 -phenyl-2-propyladenosine (R-PIA). After incubation, samples were filtered through glass fiber filters (Schleicher and Schuell #32) and washed three times with 4 ml ice-cold 10 mM TrisoHCl (pH 7.4). Radioactivity retained on the filters were counted using a Beckman LS6800 scintillation counter (Beckman Instruments, Palo Alto, Calif.). […] A LIGAND computer program was used for data analysis and curve fitting (Munson & Rodband, 1980, Anal. Biochem. 107: 220-225).
The A3 receptor was then characterized using competition assays between [^125 I]APNEA A3 receptor binding versus a series of other adenosine receptor ligands. Labeled APNEA was present in these assays at 0.5 nM; unlabled competitors were present at varying concentrations as shown in FIG. 4A.

cellular cAMP levels = experiment: Cellular cAMP levels after forskolin in wild type and stably transfected CHO cells; format: cell-based, Chinese hamster; settings: Cricetulus griseus, 20 min, read-out: increase in cellular cAMP levels, 1 μM forskolin
Protocol: as §2

A3 adenosine receptor [4] = target: T1, A3 adenosine receptor; format: cell-based; settings: 1 μM forskolin; 100 μM adenosine
[5] = stably transfected CHO membranes

CCNC(=O)[C@H]1O[C@@H](n2cnc3c(N)nc(NCCc4ccc(CCC(=O)O)cc4)nc32)[C@H](O)[C@@H]1O [CGS21680]
specific, high affinity binding to the A3 receptor (A3 adenosine receptor [1]; [5]): The only adenosine receptor ligand to show specific, high affinity binding to the A3 receptor was the A1 selective agonist [^125 I]APNEA
EC50 (A3 adenosine receptor [2]): 0.144 ± 0.034 µM
inhibition of forskolin-stimulated cAMP accumulation (A3 adenosine receptor [2]; 1 μM forskolin, 100 nM agonist): 20-50%
maximum inhibition of cAMP production (A3 adenosine receptor [2]; of control values): 40-50%

CCCn1c(=O)c2[nH]c(C3CCCC3)nc2n(CCC)c1=O [DPCPX, 1,3-dipropyl-8-cyclopentylxanthine]
specific, high affinity binding to the A3 receptor (A3 adenosine receptor [1]; [5]): The only adenosine receptor ligand to show specific, high affinity binding to the A3 receptor was the A1 selective agonist [^125 I]APNEA
specific, high affinity binding to the A3 receptor (A3 adenosine receptor [1]; stably transfected CHO membranes, listed as [^3 H]DPCPX): does not bind to the A3 adenosine receptor
reversal of inhibitory effect of NECA on forskolin-stimulated cAMP production (A3 adenosine receptor [2]; 10 nM DPCPX): could not be reversed
ability to compete with [125I]APNEA for A3 receptor binding (A3 adenosine receptor [3]): none of the methylxanthines tested were capable of competing with labeled APNEA

Nc1ccc(CCNc2ncnc3c2ncn3[C@@H]2O[C@H](CO)[C@@H](O)[C@H]2O)cc1I [APNEA, N^6-2-(4-amino-3-iodo-phenyl) ethyladenosine]
saturable binding (Scatchard plot) (A3 adenosine receptor [1]; [125I]APNEA, stably transfected CHO membranes): 225 fmol/mg
Kd (A3 adenosine receptor [1]; [125I]APNEA, stably transfected CHO membranes, read-out: Kd (Scatchard plot analysis)): 0.0155 ± 0.0024 µM
affinity at A3 compared with other, well-characterized A1 receptors (A3 adenosine receptor [1]; comparison with literature A1 receptors (Stiles et al., 1985)): about ten-fold lower
specific, high affinity binding to the A3 receptor (A3 adenosine receptor [1]; [5]): saturable and high affinity binding
specific, high affinity binding to the A3 receptor (A3 adenosine receptor [1]; stably transfected CHO membranes, listed as [^125 I]APNEA): only adenosine receptor ligand to show specific, high affinity binding to the A3 receptor

CCCn1c(=O)c2[nH]c(-c3ccc(OCC(=O)NCCN)cc3)nc2n(CCC)c1=O [XAC]
specific, high affinity binding to the A3 receptor (A3 adenosine receptor [1]; [5]): The only adenosine receptor ligand to show specific, high affinity binding to the A3 receptor was the A1 selective agonist [^125 I]APNEA
ability to compete with [125I]APNEA for A3 receptor binding (A3 adenosine receptor [3]): none of the methylxanthines tested were capable of competing with labeled APNEA

C=C[C@@]1(C)CC(=O)[C@]2(O)[C@@]3(C)[C@@H](O)CCC(C)(C)[C@@H]3[C@H](O)[C@H](OC(C)=O)[C@@]2(C)O1 [forskolin]
fold induction at 1 µM (cellular cAMP levels): 15

CCNC(=O)[C@H]1O[C@@H](n2cnc3c(N)nc(NCCc4ccc(CCC(=O)NCCNC(=O)Cc5ccc(N)cc5)cc4)nc32)[C@H](O)[C@@H]1O [PAPA-APEC]
specific, high affinity binding to the A3 receptor (A3 adenosine receptor [1]; [5]): The only adenosine receptor ligand to show specific, high affinity binding to the A3 receptor was the A1 selective agonist [^125 I]APNEA

Nc1ncnc2c1ncn2[C@@H]1O[C@H](CO)[C@@H](O)[C@H]1O [Adenosine, adenosine]
EC50 (A3 adenosine receptor [2]; Table II): 6.5 ± 2.1 µM
maximal effect on cAMP production (A3 adenosine receptor [2]; at the concentrations tested): does not reach its maximal effect at the concentrations tested
affinity relative to nucleotides (A3 adenosine receptor [3]): much higher affinity than ATP, ADP, AMP, cAMP or UTP
IC50 (A3 adenosine receptor [3]; Table I and text, 0.5 nM [125I]APNEA): 30 ± 4 µM
pharmacological profile of inhibition of [125I]APNEA binding (A3 adenosine receptor [3]; rank order): R-PIA=NECA>S-PIA>adenosine>ATP=ADP
inhibition of forskolin-stimulated cAMP accumulation (A3 adenosine receptor [4]): 20-50%

From patent US5441883A, “A3 adenosine receptor, DNA, and uses” (priority 1993, dated 1995)
